Measurements from ChEMBL document CHEMBL5209897, “Affinity Phenotypic Cellular Literature for EUbOPEN Chemogenomics Library wave 3” (2023).
Values belong to the compound of their own block, whether it stands above or below them.

Tests used:
[1] = Affinity Phenotypic Cellular interaction (Proliferation assay (CellTiter-Glo ATP assay in human lung H1299 cells)) EUB0000752a NDUFS2
[2] = molecular target: T1, Mitogen-activated protein kinase 11 (Homo sapiens, UniProt Q15759)
[3] = molecular target: T1, Mitogen-activated protein kinase 11; test: Affinity Phenotypic Cellular interaction (TNF-a release (stimmulated by LPS in human WB)) EUB0000711a MAPK11; format: functional; design: mode of action Negative control for SR318, recommended concentration 1 uM
[4] = molecular target: Mitogen-activated protein kinase 14 (Homo sapiens, UniProt Q16539); test: Affinity Phenotypic Cellular interaction (TNF-a release (stimmulated by LPS in human WB)) EUB0000711a MAPK14; format: functional; design: mode of action Negative control for SR318, recommended concentration 1 uM
Sequence of Mitogen-activated protein kinase 14 (Q16539 whole entry): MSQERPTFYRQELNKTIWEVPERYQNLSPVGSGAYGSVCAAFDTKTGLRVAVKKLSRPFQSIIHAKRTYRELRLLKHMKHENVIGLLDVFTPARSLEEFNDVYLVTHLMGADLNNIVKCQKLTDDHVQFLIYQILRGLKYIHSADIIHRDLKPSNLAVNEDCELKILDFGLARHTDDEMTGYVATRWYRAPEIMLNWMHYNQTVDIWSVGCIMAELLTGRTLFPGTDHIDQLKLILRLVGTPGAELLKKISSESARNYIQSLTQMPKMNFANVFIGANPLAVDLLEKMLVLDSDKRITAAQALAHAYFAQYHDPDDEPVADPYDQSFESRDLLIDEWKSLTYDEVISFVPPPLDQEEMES

[5] = molecular target: B-cell lymphoma 6 protein (Homo sapiens, UniProt P41182); test: Affinity Phenotypic Cellular interaction (Inhibition of BCL6 co-repressor (BCoR, M2H assay/Bright-Glo luciferase assay in HEK293T cells, Promega)) EUB0000316c BCL6; format: cell-based; design: mode of action Inhibitor, recommended concentration 1 uM
[6] = molecular target: T2, Presenilin-1 (Homo sapiens, UniProt P49768); test: Affinity Phenotypic Cellular interaction (Abeta40 inhibition assay (in SH-SY5Y (SP4CT) cells; APP as target)) EUB0000750a PSEN1; format: cell-based; design: mode of action Inhibitor, recommended concentration 100 nM
[7] = molecular target: Methionine aminopeptidase 2 (Homo sapiens, UniProt P50579); test: Affinity Phenotypic Cellular interaction (Western Blot (acumulation of Nmet14-3-3gamma in HUVEC cells)) EUB0000303b METAP2; format: cell-based; design: mode of action Inhibitor, recommended concentration 1 uM
Sequence of Methionine aminopeptidase 2 (P50579 whole entry): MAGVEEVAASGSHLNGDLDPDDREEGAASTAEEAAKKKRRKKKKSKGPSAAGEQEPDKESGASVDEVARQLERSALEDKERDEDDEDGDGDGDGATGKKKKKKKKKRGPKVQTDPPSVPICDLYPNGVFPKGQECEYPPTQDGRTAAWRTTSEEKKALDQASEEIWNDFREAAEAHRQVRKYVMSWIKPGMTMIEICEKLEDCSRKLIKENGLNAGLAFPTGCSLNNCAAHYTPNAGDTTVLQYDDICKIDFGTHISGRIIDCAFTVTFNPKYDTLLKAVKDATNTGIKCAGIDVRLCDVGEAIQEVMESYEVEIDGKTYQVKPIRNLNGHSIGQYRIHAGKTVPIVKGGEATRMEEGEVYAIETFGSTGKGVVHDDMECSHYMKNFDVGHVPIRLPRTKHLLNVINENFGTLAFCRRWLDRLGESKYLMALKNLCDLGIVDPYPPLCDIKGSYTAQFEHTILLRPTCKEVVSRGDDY

[8] = molecular target: T2, Presenilin-1; test: Affinity Phenotypic Cellular interaction (Abeta40 inhibition assay (in SH-SY5Y (SP4CT) cells; APP as target)) EUB0000741a PSEN1; format: cell-based; design: mode of action Negative control for MRK-560, recommended concentration 100 nM
[9] = molecular target: T3, Calcium/calmodulin-dependent protein kinase kinase 2 (Homo sapiens, UniProt Q96RR4); test: Affinity Phenotypic Cellular interaction (Western Blot (downstream phosphorylation of AMPK in C4-2 cells)) EUB0000168b CAMKK2; format: cell-based; design: mode of action Negative control for SGC-CAMKK2-1 (UNC-YL-36), recommended concentration 1 uM
T3 sequence (Q96RR4 whole entry, the tested form may be a part): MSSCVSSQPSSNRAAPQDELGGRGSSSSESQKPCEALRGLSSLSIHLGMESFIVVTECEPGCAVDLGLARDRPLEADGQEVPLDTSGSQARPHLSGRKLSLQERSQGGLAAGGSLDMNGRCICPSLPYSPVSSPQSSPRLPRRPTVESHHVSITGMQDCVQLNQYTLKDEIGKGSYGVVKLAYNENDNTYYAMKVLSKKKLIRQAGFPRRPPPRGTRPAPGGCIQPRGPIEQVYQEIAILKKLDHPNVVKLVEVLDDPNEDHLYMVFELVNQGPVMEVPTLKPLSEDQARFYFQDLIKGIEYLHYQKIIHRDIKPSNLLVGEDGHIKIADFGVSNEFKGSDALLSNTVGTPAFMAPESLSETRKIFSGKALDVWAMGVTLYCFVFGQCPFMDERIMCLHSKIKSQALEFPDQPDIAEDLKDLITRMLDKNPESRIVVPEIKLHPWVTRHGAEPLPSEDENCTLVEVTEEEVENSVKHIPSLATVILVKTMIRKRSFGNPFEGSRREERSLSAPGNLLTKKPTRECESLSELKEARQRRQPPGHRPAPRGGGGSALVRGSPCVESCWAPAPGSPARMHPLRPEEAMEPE

[10] = molecular target: T2, Presenilin-1; test: Affinity Phenotypic Cellular interaction (Abeta42 inhibition assay (electrochemiluminescent detection of peptides secreted by SH-SY5Y cells stably overexpressing the APP C-terminal fragment SPA4CT)) EUB0000739a PSEN1; design: mode of action Negative control for GSM1, recommended concentration 1 uM
[11] = molecular target: T3, Calcium/calmodulin-dependent protein kinase kinase 2; test: Affinity Phenotypic Cellular interaction (Western Blot (downstream phosphorylation of AMPK in C4-2 cells)) EUB0000167b CAMKK2; format: cell-based; design: mode of action Inhibitor, recommended concentration 1 uM
[12] = molecular target: Ribosomal protein S6 kinase alpha-1 (Homo sapiens) (UniProt Q15418); test: Affinity Phenotypic Cellular interaction (Cellular mechanistic pACC assay using IMR-32 neuroblastoma cells) EUB0000707a RPS6KA1
Sequence of Ribosomal protein S6 kinase alpha-1 (Homo sapiens) (Q15418 whole entry, looked up): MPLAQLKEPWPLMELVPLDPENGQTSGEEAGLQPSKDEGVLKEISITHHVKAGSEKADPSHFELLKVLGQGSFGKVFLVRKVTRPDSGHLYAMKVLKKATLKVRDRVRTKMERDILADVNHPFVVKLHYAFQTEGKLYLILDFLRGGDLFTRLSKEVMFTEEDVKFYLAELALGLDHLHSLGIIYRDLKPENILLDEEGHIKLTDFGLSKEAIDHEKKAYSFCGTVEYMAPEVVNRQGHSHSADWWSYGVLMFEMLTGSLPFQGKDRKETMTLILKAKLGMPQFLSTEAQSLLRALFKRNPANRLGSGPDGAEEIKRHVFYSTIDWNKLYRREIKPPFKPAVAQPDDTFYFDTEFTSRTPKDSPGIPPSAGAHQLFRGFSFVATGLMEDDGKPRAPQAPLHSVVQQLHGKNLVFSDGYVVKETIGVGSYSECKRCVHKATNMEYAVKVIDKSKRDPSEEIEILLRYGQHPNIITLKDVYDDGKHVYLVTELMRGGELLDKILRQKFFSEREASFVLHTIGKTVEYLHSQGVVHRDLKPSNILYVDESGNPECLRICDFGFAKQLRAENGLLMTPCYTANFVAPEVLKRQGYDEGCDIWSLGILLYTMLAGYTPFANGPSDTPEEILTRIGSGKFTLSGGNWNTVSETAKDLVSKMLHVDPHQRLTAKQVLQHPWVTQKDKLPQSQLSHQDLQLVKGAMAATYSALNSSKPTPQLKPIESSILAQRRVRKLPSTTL

[13] = molecular target: 5'-AMP-activated protein kinase catalytic subunit alpha-1 (Homo sapiens, UniProt Q13131); test: Affinity Phenotypic Cellular interaction (Cellular mechanistic pACC assay using IMR-32 neuroblastoma cells) EUB0000707a PRKAA1; format: functional; design: mode of action Negative control for BAY-3827, recommended concentration 100 nM
Sequence of 5'-AMP-activated protein kinase catalytic subunit alpha-1 (Q13131 whole entry): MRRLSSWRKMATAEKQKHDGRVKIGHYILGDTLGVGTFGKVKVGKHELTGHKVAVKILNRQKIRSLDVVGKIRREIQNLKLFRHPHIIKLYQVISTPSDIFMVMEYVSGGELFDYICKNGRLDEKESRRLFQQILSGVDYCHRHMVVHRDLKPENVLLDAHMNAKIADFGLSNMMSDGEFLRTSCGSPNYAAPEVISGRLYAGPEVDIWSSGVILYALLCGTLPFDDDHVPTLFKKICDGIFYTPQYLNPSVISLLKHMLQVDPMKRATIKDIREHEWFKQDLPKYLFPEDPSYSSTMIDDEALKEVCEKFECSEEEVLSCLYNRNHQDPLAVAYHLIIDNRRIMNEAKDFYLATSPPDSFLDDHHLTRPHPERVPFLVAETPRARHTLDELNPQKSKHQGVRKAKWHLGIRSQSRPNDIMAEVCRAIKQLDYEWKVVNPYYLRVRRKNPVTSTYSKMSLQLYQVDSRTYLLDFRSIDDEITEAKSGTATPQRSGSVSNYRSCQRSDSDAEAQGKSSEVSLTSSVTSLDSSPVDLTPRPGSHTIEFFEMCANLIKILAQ

[14] = molecular target: Activin receptor type-1B (Homo sapiens, UniProt P36896); test: Affinity Phenotypic Cellular interaction (Western blot (inhibition of SMAD2/3 phosphorylation)) EUB0000710a ACVR1B
Sequence of Activin receptor type-1B (P36896 whole entry): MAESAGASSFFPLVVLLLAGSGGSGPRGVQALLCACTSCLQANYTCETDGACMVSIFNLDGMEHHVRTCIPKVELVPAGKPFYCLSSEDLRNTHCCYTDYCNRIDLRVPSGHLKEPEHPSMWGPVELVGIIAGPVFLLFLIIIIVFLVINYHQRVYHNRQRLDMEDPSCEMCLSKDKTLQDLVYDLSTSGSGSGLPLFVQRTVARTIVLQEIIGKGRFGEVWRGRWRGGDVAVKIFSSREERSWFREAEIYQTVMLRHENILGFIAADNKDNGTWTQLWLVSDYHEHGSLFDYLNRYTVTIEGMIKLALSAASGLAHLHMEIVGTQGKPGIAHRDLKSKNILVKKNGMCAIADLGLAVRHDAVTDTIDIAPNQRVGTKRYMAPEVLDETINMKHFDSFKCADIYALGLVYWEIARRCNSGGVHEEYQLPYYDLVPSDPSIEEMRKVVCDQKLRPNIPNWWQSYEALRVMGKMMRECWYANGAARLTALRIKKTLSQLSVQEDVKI

[15] = molecular target: TGF-beta receptor type-1 (Homo sapiens, UniProt P36897); test: Affinity Phenotypic Cellular interaction (Western blot (inhibition of SMAD2/3 phosphorylation)) EUB0000710a TGFBR1
Sequence of TGF-beta receptor type-1 (P36897 whole entry): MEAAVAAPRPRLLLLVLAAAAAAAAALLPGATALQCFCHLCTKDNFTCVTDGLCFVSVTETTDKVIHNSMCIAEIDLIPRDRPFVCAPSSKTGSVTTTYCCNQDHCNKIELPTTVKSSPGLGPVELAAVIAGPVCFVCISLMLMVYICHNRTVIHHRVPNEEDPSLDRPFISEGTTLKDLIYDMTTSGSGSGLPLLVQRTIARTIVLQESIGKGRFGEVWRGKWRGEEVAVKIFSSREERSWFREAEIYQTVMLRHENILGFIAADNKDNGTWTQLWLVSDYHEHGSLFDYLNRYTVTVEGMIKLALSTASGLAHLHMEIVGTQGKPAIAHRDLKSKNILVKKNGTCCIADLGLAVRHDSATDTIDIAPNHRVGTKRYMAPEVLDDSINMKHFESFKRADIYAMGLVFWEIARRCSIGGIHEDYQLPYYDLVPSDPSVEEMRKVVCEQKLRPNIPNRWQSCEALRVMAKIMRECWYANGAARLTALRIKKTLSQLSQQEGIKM

[16] = molecular target: T1, Mitogen-activated protein kinase 11; test: Affinity Phenotypic Cellular interaction (TNF-a release (stimmulated by LPS in human WB)) EUB0000718a MAPK11; format: functional; design: mode of action Inhibitor, recommended concentration 1 uM

T1 sequence (Q15759 whole entry): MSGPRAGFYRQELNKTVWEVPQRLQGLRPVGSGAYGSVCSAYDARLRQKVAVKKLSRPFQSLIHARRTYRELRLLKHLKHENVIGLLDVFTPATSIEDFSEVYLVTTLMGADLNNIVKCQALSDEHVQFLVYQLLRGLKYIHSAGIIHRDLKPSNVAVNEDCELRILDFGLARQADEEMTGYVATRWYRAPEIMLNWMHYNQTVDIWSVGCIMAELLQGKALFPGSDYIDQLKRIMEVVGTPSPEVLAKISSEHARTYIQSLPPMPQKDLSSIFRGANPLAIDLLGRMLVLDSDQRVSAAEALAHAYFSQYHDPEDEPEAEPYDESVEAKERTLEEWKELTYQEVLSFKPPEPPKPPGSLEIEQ

- IC50 [3]: > 10 µM
- IC50 [4]: > 10 µM
SMILES: O=C(NCCCC1CCCCC1)c1ccc(CNC(=O)c2cnn(-c3ccccc3)c2C(F)(F)F)cc1 [SR-321]

- IC50 [6]: < 0.0005 µM
SMILES: O=S(=O)(NC1CCC(c2cc(F)ccc2F)(S(=O)(=O)c2ccc(Cl)cc2)CC1)C(F)(F)F (stereo unspecified) [MRK-560]

- IC50 [8]: 1.6 µM
SMILES: CC(C)(C)OC(=O)N1CCCC1CNC1CCC(c2cc(F)ccc2F)(S(=O)(=O)c2ccc(Cl)cc2)CC1 (stereo unspecified) [GSI-NC]

- IC50 [12]: > 30 µM
- IC50 [13]: > 30 µM
SMILES: CC1=C(C#N)C(c2ccc3c(c2)c(NC(=O)c2ccccc2C)nn3C)C(C#N)=C(C)N1 [BAY-974]

- EC50 [14]: > 10 µM
- EC50 [15]: > 10 µM
SMILES: Cc1cnc(-c2cc(Cl)ccc2F)cc1-n1c(=O)n(CC(N)=O)c2ccccc21 [Al11]

- IC50 [16]: 0.038 µM
SMILES: O=C(NCCN1CCOCC1)c1ccc2c(c1)C(=O)c1ccc(Nc3ccc(F)c(NC(=O)c4ccccc4)c3)cc1CC2 [FS-694]

Second part, the compound before the results:

SMILES: c1ccc2oc(-c3csc(C4CCN(Cc5nc6ncccc6[nH]5)CC4)n3)cc2c1
- IC50 [1]: 0.033 µM

SMILES: O=C1c2ccc(Nc3ccc(F)cc3F)cc2CCc2ccc(OC[C@H](O)CO)cc21 [Skepinone-L]
- IC50 [2]: 0.025 µM

SMILES: O=C1CCc2cc(Nc3cc(OC4CCOCC4)c([N+](=O)[O-])cc3Cl)ccc2N1
- IC50 [5]: 0.72 µM

SMILES: Cc1nc(N2CC[C@H](O)C2)ncc1-c1cc(C(F)(F)F)cc2[nH]ncc12
- EC50 [7]: 0.015 µM

SMILES: O=C(O)c1ccc(-c2coc3ncc(-c4ccccc4)cc23)cc1Cl
- IC50 [9]: > 10 µM

SMILES: COc1cc(-c2cn([C@H]3CCc4ccccc4N(CC(F)(F)F)C3=O)nn2)ccc1-n1ccc(C)n1
- IC50 [10]: > 10 µM

SMILES: Cc1cccc(-c2cnc3occ(-c4ccc(C(=O)O)c(C5CCCC5)c4)c3c2)c1
- IC50 [11]: 1.6 µM
